# “And” between values parts separate entries of the source, which are not always exact repeats. Equal entries are not always repeated.
# B1: rKBP: Recombinant tissue kallikrein binding protein, reference drug given intravitreally (protein, UniProt P29622 21-427, looked up)
# Kallistatin: QLHVEHDGESCSNSSHQQILETGEGSPSLKIAPANADFAFRFYYLIASETPGKNIFFSPLSISAAYAMLSLGACSHSRSQILEGLGFNLTELSESDVHRGFQHLLHTLNLPGHGLETRVGSALFLSHNLKFLAKFLNDTMAVYEAKLFHTNFYDTVGTIQLINDHVKKETRGKIVDLVSELKKDVLMVLVNYIYFKALWEKPFISSRTTPKDFYVDENTTVRVPMMLQDQEHHWYLHDRYLPCSVLRMDYKGDATVFFILPNQGKMREIEEVLTPEMLMRWNNLLRKRNFYKKLELHLPKFSISGSYVLDQILPRLGFTDLFSKWADLSGITKQQKLEASKSFHKATLDVDEAGTEAAAATSFAIKFFSAQTNRHILRFNRPFLVVIFSTSTQSVLFLGKVVDPTKP
# Key:
# [1] = system: retinal vascular permeability in streptozotocin-diabetic Brown-Norway rats; assay: Retinal vascular permeability (Evans Blue dye) in streptozotocin-diabetic Brown-Norway rats, eye drops; type: in vivo, rat
# Protocol: Male Brown-Norway or Wistar rats were made diabetic by […] injection of 65 mg/kg intraperitoneal streptozotocin. Rats with a glycemia <350 mg/dl were discarded from the study. Seven days later, Brown-Norway rats were treated twice daily for 7 days with a single eye drop (10 μl) containing 0.1, 0.3, 1 and 3% phosphate salt of compound n° 49 or its vehicle (Saline Solution). Wistar rats were treated over the same period (from day 7 for 7 days) with a single eye drop (10 μl) containing 0.3 and 1% fumarate salt of compound n° 49 or its vehicle (Saline Solution). On day 15, retinal vascular leakage was determined by measurement of retinal content of Evans Blue dye.
# More specifically, FIG. 1A is the dose-response of compound n° 49 instilled twice a day for 7 days as eye drops (0.1 to 3%) on retinal vascular leakage in streptozotocin-diabetic Brown-Norway rats. Recombinant tissue kallikrein binding protein (rKBP) was used as a reference drug and was given intravitreally 48 hours before vascular leakage measurement. Values are means ±standard error mean of 12 eyes/group (6 rats). *** means that P<0.001in a Student's t-test.
# The route by which the phosphate salt of compound n° 49 reaches the retina following topical instillation was investigated to determine whether it is mainly by systemic circulation or by the trans- and/or peri-ocular pathway. Diabetic Brown-Norway rats were treated with 3% compound n° 49 phosphate in a single eye for 7 days or subcutaneously with matching daily dosage (0.6 mg/rat). […] In addition, a daily subcutaneous administration of 0.6 mg compound n° 49 phosphate rat had no effect on retinal vascular permeability.
# [2] = system: leukocyte adhesion to the retinal vasculature; assay: Leukocyte adhesion to the retinal vasculature (leukostasis) of streptozotocin-diabetic Wistar rats; type: in vivo, rat; conditions: 1% phosphate eye drop twice-a-day for 7 days, P<0.05
# Text: The effect of compound n° 49 phosphate on leukocyte adhesion to the retinal vasculature of streptozotocin-diabetic Wistar rats was also investigated using the same protocol of administration of compound n° 49 phosphate (1% eye drop twice-a-day for 7 days).
# [3] = system: retina of diabetic Wistar rats (B1R, B2R, i-NOS, e-NOS, COX-2, ICAM-1, VEGF-R2, VEGF-a, IL-1β, HIF-1α mRNA); assay: mRNA expression of cytokines, vasoactive mediators and growth factors in retina of diabetic Wistar rats; type: in vivo, rat; conditions: 1% eye drops 7 days
# Text: In order to explore molecular pathways involved into reduction of retinal vascular permeability by compound n° 49 phosphate in diabetic rats, expression of mRNA of cytokines, vasoactive mediators and growth factors was quantified in retina of control and diabetic Wistar rats treated or not with 1% compound n° 49 phosphate eye drops for 7 days. Expression of mRNA of B1R, B2R, i-NOS, e-NOS, COX-2, ICAM-1, VEGF-R2, VEGF-a, IL-1β and HIF-1α was increased in diabetic rat retina compared to control by 7.5-fold (P<0.05), 5.5, 15- (P<0.01), 6.5-, 8- (P<0.05), 8- , 5- (P<0.05), 12-, 6.5- (P<0.01) and 7-fold (P<0.05), respectively. Expression of TNF-α mRNA remained unchanged.
# [4] = system: retina of diabetic Wistar rats (B1R, B2R, i-NOS, e-NOS, COX-2, ICAM-1, VEGF-R2, VEGF-a, IL-1β, HIF-1α mRNA); assay: as above; type: in vivo, rat; conditions: 1% eye drops 7 days; remark: listed apart in the source
# [5] = system: retinal vascular leakage in STZ diabetic Brown-Norway rats; conditions: intravitreal route, positive reference drug; cited from earlier work
molecule,measurement,setting,value
COc1cc(C)c(S(=O)(=O)N(C)CCOCC(=O)N(C)Cc2ccc(C3=NCCN3)cc2)c(C)c1 [compound n° 49 phosphate],"reduction of retinal vascular permeability, treated eye","[1]; 3% phosphate in a single eye for 7 days, diabetic Brown-Norway rats, P<0.001",37%
same,"reduction of retinal oedema, maximum","[1]; phosphate salt, eye drop 0.1-3% twice daily for 7 days, dose-dependent, diabetic Brown-Norway rats",55%
same,leukostasis in retinal vessels of diabetic rats,[2],significantly blunted
same,mRNA expression of B1R in retina,[3],down-regulated to control level
same,mRNA expression of B2R in retina,[3],down-regulated to control level
same,mRNA expression of COX-2 in retina,[3],down-regulated to control level
same,mRNA expression of HIF-1α in retina,[3],down-regulated to control level
same,mRNA expression of ICAM-1 in retina,[3],down-regulated to control level
same,mRNA expression of VEGF-A in retina (in list down-regulated to control level),[3],down-regulated to control level
same,mRNA expression of e-NOS in retina,[3],down-regulated to control level
same,mRNA expression of i-NOS in retina,[3],down-regulated to control level
same,reduction of expression of VEGF-A mRNA in retina,[3],50%
same,mRNA expression of IL-1β in retina,[4],down-regulated to control level
COc1cc(C)c(S(=O)(=O)N(C)CCOCC(=O)N(C)Cc2ccc(C3=NCCN3)cc2)c(C)c1 [compound n° 49],"reduction of retinal edema, maximum","[1]; 1% eye drops, two separate preliminary studies (data not shown), strain not stated",58% and 63%
B1,reduction of retinal vascular leakage,[5],approximately 50%
